Source: patent publication US7105522B2, “HIV inhibiting pyrazinone derivatives” (Janssen Pharmaceutica, N.V., priority 2001, dated 2006)
Like-named read-outs stand apart in the source and are kept apart here.

Legend:
HIV-1 = assay: microbe, parasite or virus in culture; type: cell-based; details: for IC50: HIV-infected MT-4 cells, MTT, OD 540 nm, read-out: IC50 (50% inhibitory concentration, dose achieving 50% protection); for SI (selectivity index, ratio of CC50 to IC50): MT-4 cells
Description: A rapid, sensitive and automated assay procedure was used for the in vitro evaluation of anti-HIV agents. An […] T4-cell line, MT-4, which was previously shown (Koyanagi et al., Int. J. Cancer, 36, 445–451, 1985) to be highly susceptible to and permissive for HIV infection, served as the target cell line. Inhibition of the HIV-induced cytopathic effect was used as the end point. The viability of both HIV- and mock-infected cells was assessed spectrophotometrically via the in situ reduction of 3-(4,5-dimethylthiazol-2-yl)-2,5-diphenyltetrazolium bromide (MTT). The 50% cytotoxic concentration (CC50 in μM) was defined as the concentration of compound that reduced the absorbance of the mock-infected control sample by 50%. The percent protection achieved by the compound in HIV-infected cells was calculated by the following formula:
(§1) [formula] whereby (ODT)HIV is the optical density measured with a given concentration of the test compound in HIV-infected cells; (ODC)HIV is the optical density measured for the control untreated HIV-infected cells; (ODC)MOCK is the optical density measured for the control untreated mock-infected cells; all optical density values were determined at 540 nm. The dose achieving 50% protection according to the above formula was defined as the 50% inhibitory concentration (IC50 in μM). The ratio of CC50 to IC50 was defined as the selectivity index (SI).

[1] = Cytotoxicity in mock-infected MT-4 cells (MTT); type: cell-based; details: human, OD 540 nm, read-out: CC50 (50% cytotoxic concentration)
Description: (§2) A rapid, sensitive and automated assay procedure was used for the in vitro evaluation of anti-HIV agents. […] Inhibition of the HIV-induced cytopathic effect was used as the end point. The viability of both HIV- and mock-infected cells was assessed spectrophotometrically via the in situ reduction of 3-(4,5-dimethylthiazol-2-yl)-2,5-diphenyltetrazolium bromide (MTT). […] The percent protection achieved by the compound in HIV-infected cells was calculated by the following formula:
as §1, with “The dose achieving 50% protection according to the above formula was defined as the 50% inhibitory concentration (IC50 in μM).” left out

mock-infected MT-4 cells = assay: Cytotoxicity in mock-infected MT-4 cells (MTT); type: cell-based; details: OD 540 nm, read-out: CC50 (50% cytotoxic concentration)
Description: as §2
as §1, with “The dose achieving 50% protection according to the above formula was defined as the 50% inhibitory concentration (IC50 in μM).” left out

[2] = Human immunodeficiency virus 1, MT4

Cc1cc(C#N)cc(C)c1Oc1nc(Nc2ccc(C#N)cc2)c(=O)n(C)c1C [Compound 1, 4-[[6-[(4-cyanophenyl)amino]-4,5-dihydro-3,4-dimethyl-5-oxopyrazinyl]oxy]-3,5-dimethyl-benzonitrile]
IC50 (HIV-1; [2]): 0.0063 µM
SI (selectivity index, ratio of CC50 to IC50) (HIV-1): 15849
CC50 [1]: 99.8 µM

Cc1ccccc1Oc1cn(C)c(=O)c(Nc2ccc(C#N)cc2)n1 [Compound 2, 4-[[3,4-dihydro-4-methyl-6-(2-methylphenoxy)-3-oxopyrazinyl]amino]-benzonitrile]
IC50 (HIV-1): 0.004 µM
CC50 (mock-infected MT-4 cells): 100 µM

Cc1ccc(Oc2cn(C)c(=O)c(Nc3ccc(C#N)cc3)n2)c(C)c1 [Compound 3, 4-[[6-(2,4-dimethylphenoxy)-3,4-dihydro-4-methyl-3-oxopyrazinyl]amino]-benzonitrile]
IC50 (HIV-1): 0.0006 µM
CC50 (mock-infected MT-4 cells): 95.1 µM

Cc1ccccc1Sc1cn(C)c(=O)c(Nc2ccc(C#N)cc2)n1 [Compound 4, 4-[[3,4-dihydro-4-methyl-6-[(2-methylphenyl)thio]-3-oxopyrazinyl]amino]-benzonitrile]
IC50 (HIV-1; [2]): 0.02 µM
SI (selectivity index, ratio of CC50 to IC50) (HIV-1): 5012
CC50 [1]: 100 µM

Cc1ccccc1Oc1nc(Nc2ccc(Cl)cc2)c(=O)n(C)c1C [Compound 6, 3-[(4-chlorophenyl)amino]-1,6-dimethyl-5-(2-methylphenoxy)-2(1H)-pyrazinone]
IC50 (HIV-1; [2]): 0.1 µM
SI (selectivity index, ratio of CC50 to IC50) (HIV-1): 1000
CC50 [1]: 100 µM

Cc1ccc(Oc2cn(C)c(=O)c(Nc3ccccc3)n2)c(C)c1 [Compound 7, 5-(2,4-dimethylphenoxy)-1-methyl-3-(phenylamino)-2(1H)-pyrazinone]
IC50 (HIV-1; [2]): 0.2 µM
SI (selectivity index, ratio of CC50 to IC50) (HIV-1): 501
CC50 [1]: 99.9 µM

Cc1ccc(Sc2nc(Nc3ccc(Cl)cc3)c(=O)n(C)c2C)c(C)c1 [Compound 8, 3-[(4-chlorophenyl)amino]-5-[(2,4-dimethylphenyl)thio]-1,6-dimethyl-2(1H)-pyrazinone]
IC50 (HIV-1; [2]): 0.501 µM
SI (selectivity index, ratio of CC50 to IC50) (HIV-1): 200
CC50 [1]: 100 µM

Cc1ccc(Oc2cn(Cc3ccccc3)c(=O)c(Nc3ccc(C#N)cc3)n2)c(C)c1 [Compound 9, 4-[[6-(2,4-dimethylphenoxy)-3,4-dihydro-3-oxo-4-(phenylmethyl)pyrazinyl]amino]-benzonitrile]
melting point: 175 °C
IC50 (HIV-1; [2]): 0.0316 µM
SI (selectivity index, ratio of CC50 to IC50) (HIV-1): 3162
CC50 [1]: 99.9 µM

Cc1ccc(Oc2cn(C)c(=O)c(Nc3ccc(C(F)(F)F)cc3)n2)c(C)c1 [Compound 11, 5-(2,4-dimethylphenoxy)-1-methyl-3-[[4-(trifluoromethyl)phenyl]amino]-2(1H)-pyrazinone]
IC50 (HIV-1; [2]): 0.501 µM
SI (selectivity index, ratio of CC50 to IC50) (HIV-1): 200
CC50 [1]: 100 µM

Cc1cc(C)c(Sc2cn(C)c(=O)c(Nc3ccc(C#N)cc3)n2)c(C)c1 [Compound 13, 4-[[3,4-dihydro-4-methyl-3-oxo-6-[(2,4,6-trimethylphenyl)thio]pyrazinyl]amino]-benzonitrile]
IC50 (HIV-1): 0.0158 µM
CC50 (mock-infected MT-4 cells): 99.7 µM

Cc1cc(C)c(Sc2cn(C)c(=O)c(Nc3ccc(Cl)cc3)n2)c(C)c1 [Compound 14, 3-[(4-chlorophenyl)amino]-1-methyl-5-[(2,4,6-trimethylphenyl)thio]-2(1H)-pyrazinone]
IC50 (HIV-1; [2]): 0.0794 µM
SI (selectivity index, ratio of CC50 to IC50) (HIV-1): 1259
CC50 [1]: 99.9 µM

Cc1cc(C)c(S(=O)(=O)c2cn(C)c(=O)c(Nc3ccc(C#N)cc3)n2)c(C)c1 [Compound 15, 4-[[3,4-dihydro-4-methyl-3-oxo-6-[(2,4,6-trimethylphenyl)sulfonyl]pyrazinyl]amino]-benzonitrile]
IC50 (HIV-1): 0.0079 µM
CC50 (mock-infected MT-4 cells): 99.4 µM

Cc1ccc(S(=O)(=O)c2nc(Nc3ccc(C#N)cc3)c(=O)n(C)c2C)c(C)c1 [Compound 16, 4-[[6-[(2,4-dimethylphenyl)sulfonyl]-3,4-dihydro-4,5-dimethyl-3-oxopyrazinyl]amino]-benzonitrile]
IC50 (HIV-1; [2]): 0.0316 µM
SI (selectivity index, ratio of CC50 to IC50) (HIV-1): 3162
CC50 [1]: 99.9 µM

Cc1cc(C)c(S(=O)(=O)c2nc(Nc3ccc(C#N)cc3)c(=O)n(C)c2C)c(C)c1 [Compound 17, 4-[[3,4-dihydro-4,5-dimethyl-3-oxo-6-[(2,4,6-trimethylphenyl)sulfonyl]pyrazinyl]amino]-benzonitrile]
IC50 (HIV-1; [2]): 0.005 µM
SI (selectivity index, ratio of CC50 to IC50) (HIV-1): 19953
CC50 [1]: 99.8 µM

Cc1cc(C)c([S+]([O-])c2nc(Nc3ccc(C#N)cc3)c(=O)n(C)c2C)c(C)c1 (stereo not shown) [Compound 18]
IC50 (HIV-1; [2]): 0.004 µM
SI (selectivity index, ratio of CC50 to IC50) (HIV-1): 25119
CC50 [1]: 100 µM

Cc1ccccc1Oc1nc(Nc2ccc(C#N)cc2)c(=O)n(C)c1C [Compound 19, 4-[[3,4-dihydro-4,5-dimethyl-6-(2-methylphenoxy)-3-oxopyrazinyl]amino]-benzonitrile]
IC50 (HIV-1; [2]): 0.005 µM
SI (selectivity index, ratio of CC50 to IC50) (HIV-1): 19953
CC50 [1]: 99.8 µM

Cc1ccc(Oc2nc(Nc3ccc(C#N)cc3)c(=O)n(C)c2C)c(C)c1 [Compound 20, 4-[[6-(2,4-dimethylphenoxy)-3,4-dihydro-4,5-dimethyl-3-oxopyrazinyl]amino]-benzonitrile]
IC50 (HIV-1; [2]): 0.0025 µM
SI (selectivity index, ratio of CC50 to IC50) (HIV-1): 39811
CC50 [1]: 99.5 µM

Cc1ccc(Sc2cn(C)c(=O)c(Nc3ccc(C#N)cc3)n2)c(C)c1 [Compound 21, 4-[[6-[(2,4-dimethylphenyl)thio]-3,4-dihydro-4-methyl-3-oxopyrazinyl]amino]-benzonitrile]
IC50 (HIV-1): 0.005 µM
CC50 (mock-infected MT-4 cells): 99.8 µM

Cc1ccc(Oc2cn(C)c(=O)c(Nc3ccc(Cl)cc3)n2)c(C)c1 [Compound 22, 3-[(4-chlorophenyl)amino]-5-(2,4-dimethylphenoxy)-1-methyl-2(1H)-pyrazinone]
IC50 (HIV-1; [2]): 0.02 µM
SI (selectivity index, ratio of CC50 to IC50) (HIV-1): 5012
CC50 [1]: 100 µM

Cc1ccc(Oc2nc(Nc3ccc(Cl)cc3)c(=O)n(C)c2C)c(C)c1 [Compound 23, 3-[(4-chlorophenyl)amino]-5-(2,4-dimethylphenoxy)-1,6-dimethyl-2(1H)-pyrazinone]
IC50 (HIV-1; [2]): 0.0501 µM
SI (selectivity index, ratio of CC50 to IC50) (HIV-1): 1995
CC50 [1]: 99.9 µM

Cc1ccccc1Sc1nc(Nc2ccc(C#N)cc2)c(=O)n(C)c1C [Compound 24, 4-[[3,4-dihydro-4,5-dimethyl-6-[(2-methylphenyl)thio]-3-oxopyrazinyl]amino]-benzonitrile]
IC50 (HIV-1; [2]): 0.0251 µM
SI (selectivity index, ratio of CC50 to IC50) (HIV-1): 3981
CC50 [1]: 99.9 µM

Cc1ccccc1Sc1nc(Nc2ccc(C#N)cc2)c(=O)n(Cc2ccccc2)c1C [Compound 27, 4-[[6-[(2-methylphenyl)thio]-5-methyl-3,4-dihydro-3-oxo-4-(phenylmethyl)pyrazinyl]amino]-benzonitrile]
melting point: 195 °C

Cc1ccccc1Sc1nc(Nc2ccc(C#N)cc2)c(=O)[nH]c1C [Compound 28, 4-[[3,4-dihydro-5-methyl-6-[(2-methylphenyl)thio]-3-oxopyrazinyl]amino]-benzonitrile]
melting point: 290 to 291 °C
